Measured values published in patent US4853467A, “Nitrogen containing derivatives of epipodophyllotoxin glucosides” (Bristol-Myers Company, priority 1987, dated 1989).
≈ marks a conversion by molar mass, not a printed value. Counter-ions that a name gives are not always drawn.

Experiments:
P388 murine leukemia = assay: P388 Leukemia, antitumor activity against murine P388 leukemia; assay type: in vivo, murine (female CDF1 mice); conditions: i.p. on days 5 and 8; 10^6 P388 cells i.p.; maximum effect over doses; >=125 considered significant; etoposide values in parentheses are positive control in same experiment
Procedure: Female CDF1 mice were implanted intraperitoneally with a tumor inoculum of 10^6 ascites cells of P388 murine leukemia and treated with various doses of a test compound; four mice were used for each dose level and ten were used as saline-treated control. The compounds were administered by intraperitoneal injection on days 5 and 8 (day 1 being the day of tumor implantation). Antitumor activity was expressed as % T/C which is the ratio of the median survival time (MST) of drug-treated group to the MST of saline-treated control group. A compound showing a % T/C value of 125 or greater is generally considered to have significant antitumor activity in the P388 test. The experiment lasted 31 days at the end of which time the number of survivors was noted. Table I presents the results of the above-described evaluation; only the maximum % T/C and the dose showing the maximum effect are reported.

HCT/VP35 = assay: In vitro cytotoxicity assay, HCT/VP35 etoposide-resistant human colon tumor; assay type: cell-based; conditions: two values per compound, four-fold serial dilution; for In vitro cytotoxicity IC50, HCT/VP35: HCT/VP35, resistant to etoposide; for IC50: Homo sapiens, HCT/VP35, HCT/VP35, resistant to etoposide
Procedure: (§1) The in vitro cytotoxicity assay involved growing various mammalian tumor cells, including human tumor cells, on microtitre plates employing established tissue culture methods. The concentration of each compound required to inhibit cell growth by 50% (IC50) was then determined by a four-fold serial dilution technique. The validity of the method has been supported by a report published in the "Proceedings of the American Association for Cancer Research", 1984, 25:1891 (Abst. No. 328). Tumor cells of the following types were employed for each compound tested: B16-F10 murine melanoma; Moser human colon; SW900 human lung and three human colon tumor cell lines namely HCT-116, HCT-VM, and HCT-VP, the latter two being resistant to teniposide (VM) and etoposide (VP), respectively. IC50 values less than 500 μg/ml are a positive indicator of antitumor activity. Table II presents IC50 values of various compounds of the present invention against the aforementioned cell lines.

B16-F10 murine melanoma = assay: In vitro cytotoxicity assay, B16-F10 murine melanoma; assay type: cell-based; conditions: two values per compound, four-fold serial dilution; for In vitro cytotoxicity IC50, B-16-F10: B16-F10 murine melanoma; for IC50: Mus musculus, B16-F10, B16-F10 murine melanoma, read-out: In vitro cytotoxicity IC50, B-16-F10
Procedure: as §1

HCT/VM34 = assay: In vitro cytotoxicity assay, HCT/VM34 teniposide-resistant human colon tumor; assay type: cell-based; conditions: HCT/VM34, resistant to teniposide, two values per compound, four-fold serial dilution; for IC50: Homo sapiens
Procedure: as §1

HCT-116 = assay: In vitro cytotoxicity assay, HCT-116 human colon tumor; assay type: cell-based; conditions: two values per compound, four-fold serial dilution; for In vitro cytotoxicity IC50, HCT-116: HCT-116 human colon; for IC50: Homo sapiens, HCT-116, HCT-116 human colon
Procedure: as §1

SW900 human lung = assay: In vitro cytotoxicity assay, SW900 human lung; assay type: cell-based; conditions: two values per compound, four-fold serial dilution; for IC50: Homo sapiens, SW900, SW900 human lung; for In vitro cytotoxicity IC50, SW900: SW900 human lung
Procedure: as §1

Moser human colon = assay: In vitro cytotoxicity assay, Moser human colon; assay type: cell-based; conditions: two values per compound, four-fold serial dilution; for IC50: Homo sapiens
Procedure: as §1

SMILES | Max % T/C (ratio of median survival time of drug-treated group to saline-treated control group) (P388 murine leukemia) | In vitro cytotoxicity IC50, HCT/VP35 (HCT/VP35) | IC50 (HCT/VP35) | In vitro cytotoxicity IC50, B-16-F10 (B16-F10 murine melanoma) | IC50 (B16-F10 murine melanoma) | In vitro cytotoxicity IC50, HCT/VM34 (HCT/VM34) | IC50 (HCT/VM34) | In vitro cytotoxicity IC50, HCT-116 (HCT-116) | IC50 (HCT-116) | IC50 (SW900 human lung) | In vitro cytotoxicity IC50, SW900 (SW900 human lung) | IC50 (Moser human colon) | In vitro cytotoxicity IC50, MOSER (Moser human colon)
CON=C1C=C([C@@H]2c3cc4c(cc3[C@@H](O[C@@H]3O[C@@H]5CO[C@@H](C)O[C@H]5[C@H](O)[C@H]3O)[C@H]3COC(=O)[C@@H]32)OCO4)C=C(OC)C1=O [Example 1, Etoposide-ortho-quinone-3'-O-methyloxime] | 200% | – | – | – | – | – | – | – | – | – | – | – | –
COC1=CC([C@@H]2c3cc4c(cc3[C@@H](O[C@@H]3O[C@@H]5CO[C@@H](C)O[C@H]5[C@H](O)[C@H]3O)[C@H]3COC(=O)[C@@H]32)OCO4)=CC(=NOCc2ccccc2)C1=O [Example 2, Etoposide-ortho-quinone-3'-O-benzyloxime] | 242% | – | – | – | – | – | – | – | – | – | – | – | –
COc1cc([C@@H]2c3cc4c(cc3[C@@H](O[C@@H]3O[C@@H]5CO[C@@H](C)O[C@H]5[C@H](O)[C@H]3O)[C@H]3COC(=O)[C@H]23)OCO4)cc(N)c1O [Example 3, 3'-Amino-3'-desmethoxy etoposide] | 228% | – | – | – | – | – | – | – | – | – | – | – | –
COc1cc([C@@H]2c3cc4c(cc3[C@@H](O[C@@H]3O[C@@H]5CO[C@@H](C)O[C@H]5[C@H](O)[C@H]3O)[C@H]3COC(=O)[C@H]23)OCO4)cc(NC(C)=O)c1O [Example 7, 3'-Acetylamino-3'-desmethoxy etoposide] | 135% | 83 µg/mL | 90 µg/mL (≈ 146 µM) | 63 µg/mL | 54 µg/mL (≈ 87.7 µM) | 65 µg/mL | 63 µg/mL (≈ 102 µM) | 63 µg/mL | 60 µg/mL (≈ 97.5 µM) | – | – | – | –
COc1cc([C@@H]2c3cc4c(cc3[C@@H](O[C@@H]3O[C@@H]5CO[C@@H](C)O[C@H]5[C@H](O)[C@H]3O)[C@H]3COC(=O)[C@H]23)OCO4)cc(NC(=O)NCCCl)c1O [Example 10, 3'-[(2-Chloroethylamino)carbonyl]amino-3'-desmethoxy etoposide] | 110% | 106 µg/mL | 92 µg/mL (≈ 135 µM) | 87 µg/mL | 57 µg/mL (≈ 83.9 µM) | 100 µg/mL | 81 µg/mL (≈ 119 µM) | 78 µg/mL | 71 µg/mL (≈ 105 µM) | – | – | – | –
COc1cc([C@@H]2c3cc4c(cc3[C@@H](O[C@@H]3O[C@@H]5CO[C@@H](C)O[C@H]5[C@H](O)[C@H]3O)[C@H]3COC(=O)[C@H]23)OCO4)cc(NS(C)(=O)=O)c1O [Example 12, 3'-Desmethoxy-3'-methanesulfonamido etoposide] | 150% | 132 µg/mL | 88 µg/mL (≈ 135 µM) | 54 µg/mL | 61 µg/mL (≈ 93.6 µM) | – | – | 62 µg/mL | 54 µg/mL (≈ 82.9 µM) | > 188 µg/mL | – | – | –
COc1cc([C@@H]2c3cc4c(cc3[C@@H](O[C@@H]3O[C@@H]5CO[C@@H](C)O[C@H]5[C@H](O)[C@H]3O)[C@H]3COC(=O)[C@H]23)OCO4)cc(N=Cc2ccco2)c1O [Example 18, 3'-Desmethoxy-3'-[(2-furyl)methylene]amino etoposide] | 200% | – | – | 15.3 µg/mL | 12.5 µg/mL (≈ 19.2 µM) | – | – | 18.4 µg/mL | 29 µg/mL (≈ 44.5 µM) | 42 µg/mL (≈ 64.5 µM) | 40 µg/mL | 40 µg/mL (≈ 61.4 µM) | 37 µg/mL
COc1cc([C@@H]2c3cc4c(cc3[C@@H](O[C@@H]3O[C@@H]5CO[C@@H](C)O[C@H]5[C@H](O)[C@H]3O)[C@H]3COC(=O)[C@H]23)OCO4)cc(N=Cc2ccncc2)c1O [Example 19, 3'-Desmethoxy-3'-[(4-pyridyl)methylene]amino etoposide] | 230% | – | – | 16.4 µg/mL | 16.9 µg/mL (≈ 25.5 µM) | 19.3 µg/mL | 21 µg/mL (≈ 31.7 µM) | 12.7 µg/mL | 13.9 µg/mL (≈ 21 µM) | 42 µg/mL (≈ 63.4 µM) | 28 µg/mL | 38 µg/mL (≈ 57.3 µM) | 32 µg/mL
COc1ccc(C=Nc2cc([C@@H]3c4cc5c(cc4[C@@H](O[C@@H]4O[C@@H]6CO[C@@H](C)O[C@H]6[C@H](O)[C@H]4O)[C@H]4COC(=O)[C@H]34)OCO5)cc(OC)c2O)cc1 [Example 20, 3'-Desmethoxy-3'-[[(4-methoxy)phenyl]methylene]amino etoposide] | 175% | 61 µg/mL | 35 µg/mL (≈ 50.6 µM) | 19.8 µg/mL | 13.3 µg/mL (≈ 19.2 µM) | – | – | 5.6 µg/mL | 9.6 µg/mL (≈ 13.9 µM) | – | – | – | –
COc1cc([C@@H]2c3cc4c(cc3[C@@H](O[C@@H]3O[C@@H]5CO[C@@H](C)O[C@H]5[C@H](O)[C@H]3O)[C@H]3COC(=O)[C@H]23)OCO4)cc(N=Cc2cc(OC)c(OC)c(OC)c2)c1O [Example 21, 3'-Desmethoxy-3'-[[(3,4,5-trimethoxy)phenyl]methylene]amino etoposide] | 225% | 15.6 µg/mL | 26 µg/mL (≈ 34.6 µM) | 4.3 µg/mL | 5.3 µg/mL (≈ 7.05 µM) | 10.6 µg/mL | 14 µg/mL (≈ 18.6 µM) | – | – | – | – | 25 µg/mL (≈ 33.3 µM) | 27 µg/mL
COc1cc([C@@H]2c3cc4c(cc3[C@@H](O[C@@H]3O[C@@H]5CO[C@@H](C)O[C@H]5[C@H](O)[C@H]3O)[C@H]3COC(=O)[C@H]23)OCO4)cc([N+](=O)[O-])c1O [Example 24, 3'-Desmethoxy-3'-nitro etoposide] | > 140% | – | – | 50 µg/mL | 41 µg/mL (≈ 67.9 µM) | 82 µg/mL | 56 µg/mL (≈ 92.8 µM) | 53 µg/mL | 43 µg/mL (≈ 71.2 µM) | 66 µg/mL (≈ 109 µM) | 90 µg/mL | 92 µg/mL (≈ 152 µM) | 84 µg/mL
COc1cc([C@@H]2c3cc4c(cc3[C@@H](O[C@@H]3O[C@@H]5CO[C@@H](C)O[C@H]5[C@H](O)[C@H]3O)[C@H]3COC(=O)[C@H]23)OCO4)cc([N+]#N)c1[O-] [Example 25, 3'-Desmethoxy-3'-diazonium etoposide hydroxide inner salt] | 240% | 102 µg/mL | 78 µg/mL | 25 µg/mL | 29 µg/mL | 43 µg/mL | 38 µg/mL | 38 µg/mL | 24 µg/mL | – | – | – | –
COc1cc([C@@H]2c3cc4c(cc3[C@@H](O[C@@H]3O[C@@H]5CO[C@@H](C)O[C@H]5[C@H](O)[C@H]3O)[C@H]3COC(=O)[C@H]23)OCO4)cc2ncoc12 [Example 27, Etoposide benzoxazole derivative] | 165% | 15.6 µg/mL | 26 µg/mL (≈ 44.6 µM) | 4.3 µg/mL | 5.3 µg/mL (≈ 9.08 µM) | 10.6 µg/mL | 14 µg/mL (≈ 24 µM) | – | – | – | – | 25 µg/mL (≈ 42.8 µM) | 27 µg/mL
CC(=O)NC1=CC([C@@H]2c3cc4c(cc3[C@@H](O[C@@H]3O[C@@H]5CO[C@@H](C)O[C@H]5[C@H](O)[C@H]3O)[C@H]3COC(=O)[C@@H]32)OCO4)=CC(=O)C1=O [Example 28, 5'-Desmethoxy-5'-acetylamino etoposide 3',4'-orthoquinone] | 125% | 70 µg/mL | 84 µg/mL (≈ 140 µM) | 81 µg/mL | 72 µg/mL (≈ 120 µM) | 64 µg/mL | 58 µg/mL (≈ 96.7 µM) | 68 µg/mL | 66 µg/mL (≈ 110 µM) | – | – | 87 µg/mL (≈ 145 µM) | 71 µg/mL
